# From EP3058958B1, “ANIDULAFUNGIN COMPOSITION” (Selectchemie AG, priority 2015, dated 2016)
# Numbered stars: 1 amine (or outer) side, 2 acyl side, 3 side chain; on linkers, the order of the positions; unused ones are H or OH. Bridge positions count the residues as written; N and C are the ends. Square brackets hold non-standard residues; d marks the D form. Peptide text beside a SMILES is read from it. * marks the point of attachment. pTerphenylCO(4''-OnC5H11) = CCCCCOc1ccc(-c2ccc(-c3ccc(C(=O)*)cc3)cc2)cc1; Orn(4R-OH,5R-OH) = O=C([C@H](C[C@@H](O)[C@@H](O)N[*:3])N[*:1])[*:2]; hTyr(3S-OH,4S-OH) = N[C@H](C(=O)O)[C@H](O)[C@@H](O)c1ccc(O)cc1; Pro(3S-OH,4S-Me) = C[C@H]1CN[C@H](C(=O)O)[C@H]1O; Hyp = O=C(O)[C@@H]1C[C@@H](O)CN1
# Experiment: Dissolution of anidulafungin powder in the polysorbate 80 solution
# Format: physicochemical
# Experimental: Next the active ingredient is added. […] Even in small scale experiments the dissolution needs more than 4 hours. The dissolution can be accelerated by a pre-treatment of the active ingredient, preferably by dispersing the active ingredient in a pharmaceutically acceptable solvent, preferably in WFI, e.g. in an ultrasonic bath, and using this dispersion in step (b).
# Dissolve the pre-weighed amount of polysorbate 80 in about 75% of total amount of WFI, rinse weighing container with 100 ml of WFI into reactor; stir not less than 20 min until excipient completely dissolves with a mechanical stirrer at a speed of 150-190 rpm.
# Add about 7% of total amount of WFI to the pre-weighed amount of the active pharmaceutical ingredient (API) anidulafungin in glass bottle, screw the cap, shake bottle well in order to promote wetting of API and transfer it into ultrasonic bath for homogenisation. Take not less than 3 cycles of homogenisation for 10 min. Slightly shake the bottle after each cycle, in order to rinse API particles from the walls of the bottle's upper part into suspension. After white, well-homogenized suspension is obtained, transfer it into intermediate product preparation reactor, stir with a mechanical stirrer at a speed of 150-190 rpm until substance dissolves completely.
# 100% of the particles were below 750 µm. Particle sizes were analysed by laser diffraction with dry dispersion using a Malvern Mastersizer 3000 instrument. The size distribution was determined from the light scattering data using the theory of light scattering developed by Gustav Mie. […] It remained an undissolved residue of about 5% which corresponds to particles with more than about 400 µm. About 9-10% of the particles were bigger than 350 µm.
# In a second experiment an aliquot of the anidulafungin powder was sieved through a 50 mesh sieve, corresponding to a mesh width of 297 µm to remove the bigger particles.
Structure (SMILES),dissolution in the polysorbate 80 solution (after treatment of the powder in an ultrasonic bath),"time needed for dissolution (particles with a particle size of more than 400 µm, small scale experiments, solubilizing agent added)","undissolved residue (polysorbate 80 solution, vigorous stirring for 4 h, powder D90 339 µm)","dissolution in the polysorbate 80 solution (vigorous stirring for 4 h, powder D90 339 µm, unsieved)","dissolution in the polysorbate 80 solution (powder sieved through a 50 mesh sieve (297 µm), mechanical stirrer)"
"CCCCCOc1ccc(-c2ccc(-c3ccc(C(=O)N[C@H]4C[C@@H](O)[C@@H](O)NC(=O)[C@@H]5[C@@H](O)[C@@H](C)CN5C(=O)[C@H]([C@@H](C)O)NC(=O)[C@H]([C@H](O)[C@@H](O)c5ccc(O)cc5)NC(=O)[C@@H]5C[C@@H](O)CN5C(=O)[C@H]([C@@H](C)O)NC4=O)cc3)cc2)cc1 [anidulafungin powder, anidulafungin] ({pTerphenylCO(4''-OnC5H11)}-[Orn(4R-OH,5R-OH)]T[Hyp][hTyr(3S-OH,4S-OH)]T[Pro(3S-OH,4S-Me)]; lactam 1-C)",complete dissolution could be achieved,more than 4 hours,about 5%,could not be dissolved completely,
"CCCCCOc1ccc(-c2ccc(-c3ccc(C(=O)N[C@H]4C[C@@H](O)[C@@H](O)NC(=O)[C@@H]5[C@@H](O)[C@@H](C)CN5C(=O)[C@H]([C@@H](C)O)NC(=O)[C@H]([C@H](O)[C@@H](O)c5ccc(O)cc5)NC(=O)[C@@H]5C[C@@H](O)CN5C(=O)[C@H]([C@@H](C)O)NC4=O)cc3)cc2)cc1 [sieved powder, anidulafungin] ({pTerphenylCO(4''-OnC5H11)}-[Orn(4R-OH,5R-OH)]T[Hyp][hTyr(3S-OH,4S-OH)]T[Pro(3S-OH,4S-Me)]; lactam 1-C)",,,,,could be dissolved easily
